Data as given in the supplement of paper PMC8960247.
Structures can show the parent of a compound that is named as a salt. ± gives the standard error.

Assays:
621-102 (TSC2-deficient) = experiment: relative viability vs DMSO; higher = less cytotoxic; conditions: serum: 10% FBS, 72 h
621-103 (TSC2-rescued) = experiment: as above; conditions: serum: 10% FBS, 72 h
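Note: immortalized renal angiomyolipoma cells stably carrying empty vector or TSC2, dosed in 384-well plates in DMEM, viability normalized to vehicle-treated wells within each plate.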

| Structure (SMILES) | relative viability (621-102 (TSC2-deficient); 0.0001 µM) [%] | relative viability (621-102 (TSC2-deficient); 0.001 µM) [%] | relative viability (621-102 (TSC2-deficient); 0.01 µM) [%] | relative viability (621-102 (TSC2-deficient); 0.1 µM) [%] | relative viability (621-102 (TSC2-deficient); 1 µM) [%] | relative viability (621-102 (TSC2-deficient); 10 µM) [%] | relative viability (621-103 (TSC2-rescued); 0.0001 µM) [%] | relative viability (621-103 (TSC2-rescued); 0.001 µM) [%] | relative viability (621-103 (TSC2-rescued); 0.01 µM) [%] | relative viability (621-103 (TSC2-rescued); 0.1 µM) [%] | relative viability (621-103 (TSC2-rescued); 1 µM) [%] | relative viability (621-103 (TSC2-rescued); 10 µM) [%] |
| --- | --- | --- | --- | --- | --- | --- | --- | --- | --- | --- | --- | --- |
| Cc1nnc(C(=O)NC(C)(C)c2nc(C(=O)NCc3ccc(F)cc3)c(O)c(=O)n2C)o1 [Raltegravir] | 106 ± 3.9 | 106 ± 3.1 | 108 ± 4.3 | 101.8 ± 0.33 | 110 ± 3.2 | 106 ± 3.2 | 99.5 ± 3 | 101 ± 1.5 | 100 ± 1.3 | 98.8 ± 1.3 | 101 ± 1.4 | 105 ± 2.1 |
| N#Cc1c(O)c2c(-c3ccc(-c4ccccc4O)cc3)csc2[nH]c1=O | 87.4 ± 2.6 | 101.1 ± 0.29 | 99.8 ± 4.8 | 93.17 ± 0.38 | 98.55 ± 0.91 | 87.2 ± 3.2 | 99.2 ± 3.3 | 95.56 ± 0.75 | 96.1 ± 3.5 | 97.25 ± 0.34 | 100.3 ± 0.89 | 105 ± 3.5 |
| CNC(=C[N+](=O)[O-])NCCSCc1csc(CN(C)C)n1 [Nizatidine] | 102 ± 3 | 100.7 ± 0.45 | 101 ± 2.1 | 95.8 ± 1.8 | 106 ± 3.8 | 103 ± 1.6 | 102.5 ± 0.9 | 92.2 ± 3.2 | 101 ± 4.2 | 97.2 ± 1.6 | 102 ± 3.1 | 98.5 ± 4.4 |
| Cc1c(C(=O)Nc2ccc(N3C[C@@H](C)O[C@@H](C)C3)nc2)cccc1-c1ccc(OC(F)(F)F)cc1 [LDE225] | 91.8 ± 6.5 | 106 ± 2.3 | 116 ± 3.8 | 120 ± 0.74 | 115 ± 5.7 | 81.9 ± 9.2 | 92.8 ± 2.8 | 113 ± 7.7 | 112 ± 2.8 | 115.8 ± 0.72 | 116 ± 6.1 | 54.6 ± 1.5 |
| CS(=O)(=O)N1CCN(Cc2cc3nc(-c4cccc5[nH]ncc45)nc(N4CCOCC4)c3s2)CC1 [GDC-0941] | 106 ± 1.4 | 114 ± 2.3 | 114.7 ± 0.27 | 111 ± 2.6 | 97 ± 1.1 | 53.69 ± 0.36 | 98.45 ± 0.81 | 100 ± 2.2 | 98.08 ± 0.38 | 97.2 ± 2.3 | 83.3 ± 0.97 | 37.9 ± 0.47 |
| CN(C)c1ccc(-c2nc3ncc(Cl)c(N4CCN(CC(=O)Nc5nccs5)CC4)c3[nH]2)cc1 | 104 ± 2.7 | 96.7 ± 1.2 | 102 ± 4 | 105 ± 1.4 | 101 ± 4.3 | 49.3 ± 1.4 | 101 ± 2.5 | 103.4 ± 0.042 | 101.06 ± 0.096 | 100.6 ± 0.64 | 97.243 ± 0.044 | 47.5 ± 2.9 |
| CN1C(C(=O)Nc2ccccn2)=C(O)c2ccccc2S1(=O)=O [Piroxicam] | 98.4 ± 3.2 | 105 ± 8.5 | 111.3 ± 0.51 | 109 ± 4.4 | 103 ± 1.4 | 104 ± 9.8 | 110 ± 3 | 125 ± 2.3 | 126 ± 3.5 | 119.6 ± 0.1 | 112 ± 5 | 116.42 ± 0.082 |
| Cc1cc(C(=O)NOCCO)c(Nc2ccc(I)cc2F)n(C)c1=O [AZD8330] | 103 ± 1.4 | 102 ± 2.7 | 99.3 ± 1.3 | 96.05 ± 0.59 | 65.9 ± 1.7 | 58.5 ± 0.66 | 101.1 ± 0.99 | 92.9 ± 1.4 | 93.3 ± 1.4 | 93.1 ± 2.1 | 76.3 ± 0.95 | 68.4 ± 0.99 |
| CC(C)(C)c1cc(C(C)(C)C)c(NC(=O)c2c[nH]c3ccccc3c2=O)cc1O [VX-770] | 97.8 ± 4.5 | 104 ± 5.4 | 116 ± 2.3 | 119 ± 3.2 | 111 ± 3.6 | 59.3 ± 16 | 101 ± 4.3 | 117 ± 6.1 | 114 ± 4.1 | 110 ± 3.3 | 112 ± 2.9 | 32.3 ± 8.3 |
| CC(NCCc1ccc(O)cc1)C(O)c1ccc(O)cc1 (stereo not drawn) [Ritodrine HCl] | 110 ± 1.6 | 112.1 ± 0.64 | 101 ± 2.7 | 100 ± 1.3 | 100 ± 1.4 | 102 ± 6.3 | 100 ± 5 | 98 ± 2.1 | 102 ± 2.8 | 98.2 ± 6.2 | 97.3 ± 6.2 | 86.5 ± 1.5 |
| NC(=O)c1ccc(-c2nc(-c3ccccn3)c(-c3ccc4c(c3)OCO4)[nH]2)cc1 | 111 ± 2.5 | 116 ± 1.5 | 114.2 ± 0.63 | 117 ± 3.9 | 112.6 ± 1 | 106.7 ± 0.3 | 102 ± 3.6 | 108.5 ± 0.46 | 111 ± 4.9 | 98.44 ± 0.36 | 98.1 ± 1.6 | 94.07 ± 0.91 |
| Cc1ncc([N+](=O)[O-])n1CC(C)O (stereo not drawn) [Secnidazole] | 108.6 ± 0.66 | 118.1 ± 0.34 | 108 ± 3.4 | 101 ± 3.9 | 102.2 ± 0.53 | 111 ± 3 | 101 ± 2.1 | 105 ± 3.6 | 105 ± 4.5 | 105.2 ± 0.64 | 100 ± 4.3 | 93.6 ± 4.8 |
| CCO[C@@H]1OC(=O)C[C@@H]1NC(=O)[C@@H]1CCCN1C(=O)[C@@H](NC(=O)c1ccc(N)c(Cl)c1)C(C)(C)C [VX-765] | 109 ± 0.74 | 105 ± 4.9 | 116 ± 3.2 | 108 ± 4.6 | 101 ± 4 | 106 ± 1.8 | 111 ± 2.9 | 95.9 ± 4.8 | 101 ± 4.6 | 105 ± 6.8 | 101.8 ± 0.69 | 102 ± 4.9 |
| COc1cc(Nc2ncc(F)c(Nc3ccc4c(n3)NC(=O)C(C)(C)O4)n2)cc(OC)c1OC [R406] | 117 ± 2 | 110 ± 2.2 | 111 ± 1.2 | 109 ± 0.81 | 100.2 ± 0.76 | 117.2 ± 1.1 | 101 ± 1.9 | 100 ± 1.5 | 98.7 ± 1.4 | 99.27 ± 0.46 | 99.6 ± 1.3 | 89.7 ± 2.5 |
| Clc1cccc(Cl)c1NC1=NCCN1 [Clonidine HCl (Catapres)] | 111 ± 5 | 110 ± 5.9 | 101 ± 1.1 | 104 ± 3.7 | 102.3 ± 0.16 | 104 ± 1.4 | 96.4 ± 1.4 | 92.5 ± 0.96 | 93.1 ± 9.7 | 110 ± 0.19 | 113 ± 5.1 | 108 ± 1.1 |
| O=C(O)Cc1cccc(OCCCN(Cc2cccc(C(F)(F)F)c2Cl)CC(c2ccccc2)c2ccccc2)c1 [GW3965] | 89.3 ± 0.92 | 88.7 ± 4 | 86.8 ± 4.3 | 86.31 ± 0.36 | 77.5 ± 4 | 86.9 ± 5.4 | 107 ± 1.3 | 108 ± 3.5 | 110.7 ± 1 | 106 ± 4.5 | 99.6 ± 5.4 | 101 ± 3.5 |
| CC[C@H](Nc1ncnc2[nH]cnc12)c1nc2cccc(F)c2c(=O)n1-c1ccccc1 [CAL-101] | 104.38 ± 0.033 | 117.5 ± 0.72 | 111 ± 5.8 | 106 ± 3 | 104.1 ± 0.72 | 92.41 ± 0.24 | 116 ± 3.1 | 109 ± 3.1 | 114 ± 1.2 | 104 ± 3.4 | 109 ± 2 | 92.7 ± 4.7 |
| NC(=O)c1cccc2[nH]c(-c3ccc(C4CCCN4)cc3F)nc12 (stereo not drawn) | 98.7 ± 1.1 | 103.2 ± 0.25 | 104 ± 4.6 | 99.4 ± 3.5 | 102 ± 4.6 | 93.99 ± 0.45 | 96.5 ± 3.4 | 98.4 ± 1.8 | 102 ± 2.6 | 98.4 ± 4.6 | 103 ± 2.3 | 94 ± 1.4 |
| Nc1[nH]cnc2ncnc1-2 [Adenine HCl] | 93.9 ± 2 | 103 ± 0.93 | 97.03 ± 0.37 | 97.386 ± 0.086 | 96.5 ± 6.5 | 110.8 ± 1.1 | 95.5 ± 2.2 | 96.77 ± 0.35 | 92.9 ± 4.8 | 102.9 ± 0.83 | 96.7 ± 2.2 | 120 ± 2.1 |
